In patent US8420606B2, “Method of utilizing physiological activity of rare saccharide and composition containing rare saccharide” (priority 2002, dated 2013):
“Also recorded” adds a separate entry of the source.

Tested on: uterine cancer cells (He1a)
Experiment: proliferation of cultured cells, MTT method, He1a
Assay type: cell-based, human
Conditions: saccharide 50 mM, 4 to 5 days
Description: Various kinds of rare saccharides were added at a concentration of 50 mM to culture media under the following conditions, and an influence of each rare saccharide upon the progress of proliferation of cancer cell strains was examined.
(1) Target cells to which the rare saccharides were added: Hepatic cancer cells (HepG2), uterine cancer cells (He1a), ovary cancer cells (OVCAR3), and skin keratinocyte (HaCaT) were selected as target cells to which the rare saccharides were added.
(2) Rare saccharides added: In addition to D-allose, glucose and D-altros as rare saccharides belonging to ketose were added, as other comparative saccharides, to the addition target cells. Also, D-fructose was employed as a control.
(3) Experiment method: A number 3,000-5,000 of addition target cells per type were inoculated into a multi-well plastic dish (hereinafter referred to as a “well”) having 96 wells, and were cultured for 4 to 5 days in a culture medium supplemented with 5 to 10% of Fetal Bovine Serum (FBS) depending on the cell types. […] To examine the influence upon the cell proliferation, the cell number was measured in units of 24 hours by using the MTT method described below. […]
(2) Test method: The cells were treated with TEP to prepare a cell suspension liquid. […] The absorbance of the liquid was measured at a wavelength of 570 to 600 nm by using a spectrophotometer. […]

Compound: O=C[C@H](O)[C@H](O)[C@H](O)[C@H](O)CO [D-allose]
- proliferation of He1a cells (cell number over time): strongly inhibited proliferation; also recorded: has a proliferation inhibitory effect
